In ChEMBL document CHEMBL5291721, “A preclinical secondary pharmacology resource illuminates target-adverse drug reaction associations of marketed drugs” (Nat Commun, 2023):

Legend:
[1] = molecular target: T1, Muscarinic acetylcholine receptor M1 (Homo sapiens, UniProt P11229); type: functional
T1 sequence (P11229 whole entry): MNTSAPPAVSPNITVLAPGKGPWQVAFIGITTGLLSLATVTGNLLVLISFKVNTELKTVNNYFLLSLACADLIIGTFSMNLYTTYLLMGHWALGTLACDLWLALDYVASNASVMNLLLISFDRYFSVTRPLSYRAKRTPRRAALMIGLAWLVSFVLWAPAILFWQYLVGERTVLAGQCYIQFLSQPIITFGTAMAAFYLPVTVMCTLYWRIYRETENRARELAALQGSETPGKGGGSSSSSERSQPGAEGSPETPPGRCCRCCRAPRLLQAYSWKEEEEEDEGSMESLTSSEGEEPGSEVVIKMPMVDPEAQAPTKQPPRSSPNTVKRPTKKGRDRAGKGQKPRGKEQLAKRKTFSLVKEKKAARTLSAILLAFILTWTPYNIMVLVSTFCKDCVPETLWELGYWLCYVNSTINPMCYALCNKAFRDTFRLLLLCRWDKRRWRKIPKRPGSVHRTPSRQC

[2] = molecular target: Muscarinic acetylcholine receptor M3 (Homo sapiens, UniProt P20309)
D(1A) dopamine receptor = D(1A) dopamine receptor (Homo sapiens, UniProt P21728)
Endothelin-1 receptor = molecular target: T2, Endothelin-1 receptor (Homo sapiens, UniProt P25101)
T2 sequence (P25101 whole entry): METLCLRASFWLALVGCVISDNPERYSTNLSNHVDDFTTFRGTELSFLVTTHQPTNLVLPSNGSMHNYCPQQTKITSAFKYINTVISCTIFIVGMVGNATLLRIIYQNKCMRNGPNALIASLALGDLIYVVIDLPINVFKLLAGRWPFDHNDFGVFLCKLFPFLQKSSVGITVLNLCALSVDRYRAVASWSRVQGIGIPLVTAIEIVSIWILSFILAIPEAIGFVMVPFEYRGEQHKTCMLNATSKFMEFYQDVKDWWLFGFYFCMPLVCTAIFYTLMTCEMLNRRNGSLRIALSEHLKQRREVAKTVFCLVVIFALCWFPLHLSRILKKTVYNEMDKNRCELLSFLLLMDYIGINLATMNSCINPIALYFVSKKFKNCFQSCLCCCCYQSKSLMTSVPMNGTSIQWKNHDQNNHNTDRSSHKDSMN

[3] = molecular target: T3, Endothelin receptor type B (Homo sapiens, UniProt P24530)
T3 sequence (P24530 whole entry): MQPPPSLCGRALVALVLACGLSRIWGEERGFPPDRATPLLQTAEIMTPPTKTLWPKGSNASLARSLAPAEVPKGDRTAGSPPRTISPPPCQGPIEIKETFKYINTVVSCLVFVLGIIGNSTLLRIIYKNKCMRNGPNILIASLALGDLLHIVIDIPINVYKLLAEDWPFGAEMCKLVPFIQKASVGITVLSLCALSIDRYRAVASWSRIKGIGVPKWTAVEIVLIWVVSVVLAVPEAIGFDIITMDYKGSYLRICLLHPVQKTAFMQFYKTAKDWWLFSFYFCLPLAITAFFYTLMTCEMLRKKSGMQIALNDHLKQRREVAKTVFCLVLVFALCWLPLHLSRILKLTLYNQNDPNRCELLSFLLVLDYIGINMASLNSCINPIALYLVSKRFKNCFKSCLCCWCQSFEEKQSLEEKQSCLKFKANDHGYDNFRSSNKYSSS

[4] = molecular target: T4, 5-hydroxytryptamine receptor 2B (Homo sapiens, UniProt P41595); type: functional, cell-based
[5] = molecular target: T4, 5-hydroxytryptamine receptor 2B
[6] = molecular target: T5, Neuropeptide Y receptor type 2 (Homo sapiens, UniProt P49146)
T5 sequence (P49146 whole entry): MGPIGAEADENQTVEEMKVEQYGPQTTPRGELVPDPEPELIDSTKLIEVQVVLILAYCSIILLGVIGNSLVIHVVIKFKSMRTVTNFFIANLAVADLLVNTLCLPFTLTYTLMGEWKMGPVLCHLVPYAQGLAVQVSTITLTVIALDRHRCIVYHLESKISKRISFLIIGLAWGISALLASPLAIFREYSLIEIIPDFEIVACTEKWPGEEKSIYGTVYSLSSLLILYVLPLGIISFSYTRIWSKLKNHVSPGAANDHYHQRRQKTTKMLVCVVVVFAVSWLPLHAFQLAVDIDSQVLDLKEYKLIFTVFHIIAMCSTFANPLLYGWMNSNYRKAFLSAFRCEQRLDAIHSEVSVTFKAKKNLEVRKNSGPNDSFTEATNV

Mu-type opioid receptor = Mu-type opioid receptor (Homo sapiens, UniProt P35372)
[7] = molecular target: T6, 5-hydroxytryptamine receptor 1A (Homo sapiens, UniProt P08908)
T6 sequence (P08908 whole entry): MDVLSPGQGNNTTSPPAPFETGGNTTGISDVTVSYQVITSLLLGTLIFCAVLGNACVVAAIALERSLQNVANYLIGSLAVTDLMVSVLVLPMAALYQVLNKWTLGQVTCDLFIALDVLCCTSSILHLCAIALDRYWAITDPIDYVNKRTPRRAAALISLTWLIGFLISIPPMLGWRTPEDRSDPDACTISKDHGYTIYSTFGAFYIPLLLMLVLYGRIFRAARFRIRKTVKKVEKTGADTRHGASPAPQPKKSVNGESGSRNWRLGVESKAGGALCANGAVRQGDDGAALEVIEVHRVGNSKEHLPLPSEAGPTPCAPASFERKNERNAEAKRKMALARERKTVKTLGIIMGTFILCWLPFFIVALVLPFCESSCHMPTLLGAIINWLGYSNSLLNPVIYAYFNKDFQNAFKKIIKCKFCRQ

Histamine H3 receptor = Histamine H3 receptor (Homo sapiens, UniProt Q9Y5N1)
Also: assay procedure not described here.

T4 sequence (P41595 whole entry): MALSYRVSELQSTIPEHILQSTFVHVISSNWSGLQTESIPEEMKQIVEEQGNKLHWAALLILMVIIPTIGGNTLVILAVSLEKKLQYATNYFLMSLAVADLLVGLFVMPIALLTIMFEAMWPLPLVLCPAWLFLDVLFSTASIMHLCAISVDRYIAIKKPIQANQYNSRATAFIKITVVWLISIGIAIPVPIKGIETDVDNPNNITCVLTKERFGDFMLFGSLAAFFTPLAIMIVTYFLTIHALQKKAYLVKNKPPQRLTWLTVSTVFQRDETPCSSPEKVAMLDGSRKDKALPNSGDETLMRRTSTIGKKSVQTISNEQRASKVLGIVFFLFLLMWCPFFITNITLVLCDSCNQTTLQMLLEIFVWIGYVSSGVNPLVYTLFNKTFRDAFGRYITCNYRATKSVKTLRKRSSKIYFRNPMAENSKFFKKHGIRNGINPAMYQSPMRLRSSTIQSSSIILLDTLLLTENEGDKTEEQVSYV
Chain of D(1A) dopamine receptor (P21728 whole entry): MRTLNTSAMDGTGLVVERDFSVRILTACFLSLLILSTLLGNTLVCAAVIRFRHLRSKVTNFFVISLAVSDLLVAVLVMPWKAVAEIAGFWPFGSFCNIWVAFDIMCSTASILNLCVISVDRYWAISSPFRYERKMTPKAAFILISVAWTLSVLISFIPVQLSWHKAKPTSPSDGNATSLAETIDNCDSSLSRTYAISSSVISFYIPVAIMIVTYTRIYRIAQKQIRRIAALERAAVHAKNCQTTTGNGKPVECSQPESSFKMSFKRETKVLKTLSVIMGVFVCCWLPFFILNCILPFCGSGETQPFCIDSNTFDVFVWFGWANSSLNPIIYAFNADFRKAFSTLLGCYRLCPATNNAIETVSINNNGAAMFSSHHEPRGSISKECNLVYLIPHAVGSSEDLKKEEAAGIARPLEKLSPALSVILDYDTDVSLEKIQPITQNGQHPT
Chain of Mu-type opioid receptor (P35372 whole entry): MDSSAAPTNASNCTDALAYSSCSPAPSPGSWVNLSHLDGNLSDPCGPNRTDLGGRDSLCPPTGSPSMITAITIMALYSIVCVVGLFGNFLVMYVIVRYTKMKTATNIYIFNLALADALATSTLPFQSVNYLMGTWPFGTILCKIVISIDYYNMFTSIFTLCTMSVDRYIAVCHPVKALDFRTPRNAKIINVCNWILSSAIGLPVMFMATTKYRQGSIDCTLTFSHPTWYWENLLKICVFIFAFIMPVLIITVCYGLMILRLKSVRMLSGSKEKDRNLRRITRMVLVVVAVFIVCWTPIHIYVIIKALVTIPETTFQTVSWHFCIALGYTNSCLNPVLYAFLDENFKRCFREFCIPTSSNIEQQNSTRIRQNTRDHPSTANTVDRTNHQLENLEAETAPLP
Chain of Muscarinic acetylcholine receptor M3 (P20309 whole entry): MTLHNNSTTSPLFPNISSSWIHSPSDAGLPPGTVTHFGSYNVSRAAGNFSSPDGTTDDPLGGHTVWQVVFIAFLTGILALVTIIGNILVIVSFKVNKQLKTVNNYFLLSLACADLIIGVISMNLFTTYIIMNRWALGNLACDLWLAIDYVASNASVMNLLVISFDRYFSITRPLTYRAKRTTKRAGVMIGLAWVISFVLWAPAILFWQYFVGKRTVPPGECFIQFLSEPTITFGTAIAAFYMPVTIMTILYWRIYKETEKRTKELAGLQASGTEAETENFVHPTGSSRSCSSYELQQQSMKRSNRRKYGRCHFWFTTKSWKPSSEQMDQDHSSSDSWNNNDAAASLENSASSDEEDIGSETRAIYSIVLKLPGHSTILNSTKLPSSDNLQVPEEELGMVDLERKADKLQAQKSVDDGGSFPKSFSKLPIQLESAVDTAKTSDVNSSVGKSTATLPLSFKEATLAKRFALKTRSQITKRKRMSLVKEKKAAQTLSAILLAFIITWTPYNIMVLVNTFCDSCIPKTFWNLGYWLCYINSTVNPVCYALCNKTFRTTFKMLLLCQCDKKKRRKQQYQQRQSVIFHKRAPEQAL
Chain of Histamine H3 receptor (Q9Y5N1 whole entry): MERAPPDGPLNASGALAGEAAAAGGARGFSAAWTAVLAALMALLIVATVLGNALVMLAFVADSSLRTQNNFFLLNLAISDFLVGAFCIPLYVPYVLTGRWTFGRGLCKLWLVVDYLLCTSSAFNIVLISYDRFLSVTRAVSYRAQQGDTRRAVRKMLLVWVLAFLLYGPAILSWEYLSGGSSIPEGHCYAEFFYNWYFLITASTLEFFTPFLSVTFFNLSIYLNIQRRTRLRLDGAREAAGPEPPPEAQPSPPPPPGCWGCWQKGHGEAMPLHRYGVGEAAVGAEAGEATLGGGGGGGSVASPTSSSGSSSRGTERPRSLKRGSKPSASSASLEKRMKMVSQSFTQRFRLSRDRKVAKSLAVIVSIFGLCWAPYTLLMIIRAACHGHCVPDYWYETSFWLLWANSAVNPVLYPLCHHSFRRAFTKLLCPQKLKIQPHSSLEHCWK

In the case of `CCC(=O)O[C@]1(C(=O)SCF)[C@H](C)C[C@H]2[C@@H]3C[C@H](F)C4=CC(=O)C=C[C@]4(C)[C@@]3(F)[C@@H](O)C[C@@]21C` [FLUTICASONE PROPIONATE], the AC50 [1] is reported as > 30 µM, the AC50 [2] is reported as > 30 µM and the AC50 (D(1A) dopamine receptor) is reported as > 30 µM. The AC50 (Endothelin-1 receptor) was > 30 µM, the AC50 [3] was > 30 µM and the AC50 [4] was > 30 µM. For the same compound, the AC50 [5] was > 10 µM, the AC50 [6] was > 30 µM and the AC50 (Mu-type opioid receptor) was > 30 µM. For the same compound, the AC50 [7] was > 10 µM and the AC50 (Histamine H3 receptor) was > 30 µM.
